Laboratory results reported in ChEMBL document CHEMBL5260859, “Discovery and structure-activity relationship study of 2-piperazinyl-benzothiazole derivatives as potent and selective PPARδ agonists” (Bioorg Med Chem, 2023).

Key:
[1] = biological target: T1, Peroxisome proliferator-activated receptor delta (Mus musculus, UniProt P35396); assay: Agonist activity at Gal4-fused mouse PPAR-delta ligand binding domain expressed in CHO-K1 cells assessed as receptor transactivation incubated for 24 to 48 hrs by luciferase reporter gene assay; assay type: cell-based
T1 sequence (P35396 whole entry): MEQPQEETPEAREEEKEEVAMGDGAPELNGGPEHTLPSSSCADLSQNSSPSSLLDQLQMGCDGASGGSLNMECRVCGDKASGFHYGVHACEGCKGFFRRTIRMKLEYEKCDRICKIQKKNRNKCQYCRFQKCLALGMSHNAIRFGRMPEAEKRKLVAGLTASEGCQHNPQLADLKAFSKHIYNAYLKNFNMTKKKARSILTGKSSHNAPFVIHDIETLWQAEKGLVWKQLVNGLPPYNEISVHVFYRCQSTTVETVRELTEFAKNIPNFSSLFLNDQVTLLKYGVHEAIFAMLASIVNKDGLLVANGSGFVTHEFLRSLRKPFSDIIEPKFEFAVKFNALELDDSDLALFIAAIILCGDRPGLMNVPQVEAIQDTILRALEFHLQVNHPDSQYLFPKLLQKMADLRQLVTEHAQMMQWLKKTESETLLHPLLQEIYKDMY

[2] = biological target: T2, Peroxisome proliferator-activated receptor gamma (Homo sapiens, UniProt P37231); assay type: cell-based, CHO-K1
T2 sequence (P37231 whole entry): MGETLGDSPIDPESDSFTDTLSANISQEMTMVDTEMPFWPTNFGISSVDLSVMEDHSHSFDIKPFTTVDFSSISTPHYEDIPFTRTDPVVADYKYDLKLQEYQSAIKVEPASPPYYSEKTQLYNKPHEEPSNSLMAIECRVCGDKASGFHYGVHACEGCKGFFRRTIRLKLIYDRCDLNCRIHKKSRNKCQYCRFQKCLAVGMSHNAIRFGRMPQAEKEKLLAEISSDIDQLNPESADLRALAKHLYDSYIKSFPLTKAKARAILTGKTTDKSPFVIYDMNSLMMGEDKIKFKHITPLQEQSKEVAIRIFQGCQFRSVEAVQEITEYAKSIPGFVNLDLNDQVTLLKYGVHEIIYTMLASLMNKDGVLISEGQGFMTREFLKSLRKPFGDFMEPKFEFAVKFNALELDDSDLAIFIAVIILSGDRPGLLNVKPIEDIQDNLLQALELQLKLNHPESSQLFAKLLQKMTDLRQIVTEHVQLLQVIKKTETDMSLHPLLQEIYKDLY

[3] = biological target: T3, Peroxisome proliferator-activated receptor alpha (Homo sapiens) (UniProt Q07869); assay: Agonist activity at Gal4-fused human PPAR-alpha ligand binding domain expressed in CHO-K1 cells assessed as receptor transactivation incubated for 24 to 48 hrs by luciferase reporter gene assay relative to control; assay type: cell-based; settings: time lower 24.0 hrs, time upper […]
T3 sequence (whole entry): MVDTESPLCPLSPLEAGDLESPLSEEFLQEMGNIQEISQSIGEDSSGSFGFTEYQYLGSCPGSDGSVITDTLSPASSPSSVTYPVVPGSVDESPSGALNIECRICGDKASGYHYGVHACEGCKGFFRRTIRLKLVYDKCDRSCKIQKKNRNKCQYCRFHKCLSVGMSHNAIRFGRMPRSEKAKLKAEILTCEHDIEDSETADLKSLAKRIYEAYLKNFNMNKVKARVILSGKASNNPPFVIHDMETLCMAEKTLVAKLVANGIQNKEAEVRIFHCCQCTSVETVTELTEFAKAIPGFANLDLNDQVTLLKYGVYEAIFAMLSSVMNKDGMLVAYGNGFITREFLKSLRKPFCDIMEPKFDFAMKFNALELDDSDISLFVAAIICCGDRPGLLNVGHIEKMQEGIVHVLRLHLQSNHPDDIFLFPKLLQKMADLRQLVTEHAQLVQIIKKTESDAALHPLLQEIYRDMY

Mus musculus [4] = species: Mus musculus; assay: Selectivity ratio of EC50 for agonist activity at Gal4-fused mouse PPAR-alpha ligand binding domain expressed in CHO-K1 cells to EC50 for agonist activity at Gal4-fused mouse PPAR-delta ligand binding domain expressed in CHO-K1 cells; assay type: cell-based
[5] = biological target: T4, Peroxisome proliferator-activated receptor alpha (Mus musculus, UniProt P23204); assay: Agonist activity at Gal4-fused mouse PPAR-alpha ligand binding domain expressed in CHO-K1 cells assessed as receptor transactivation incubated for 24 to 48 hrs by luciferase reporter gene assay; assay type: cell-based
T4 sequence (P23204 whole entry): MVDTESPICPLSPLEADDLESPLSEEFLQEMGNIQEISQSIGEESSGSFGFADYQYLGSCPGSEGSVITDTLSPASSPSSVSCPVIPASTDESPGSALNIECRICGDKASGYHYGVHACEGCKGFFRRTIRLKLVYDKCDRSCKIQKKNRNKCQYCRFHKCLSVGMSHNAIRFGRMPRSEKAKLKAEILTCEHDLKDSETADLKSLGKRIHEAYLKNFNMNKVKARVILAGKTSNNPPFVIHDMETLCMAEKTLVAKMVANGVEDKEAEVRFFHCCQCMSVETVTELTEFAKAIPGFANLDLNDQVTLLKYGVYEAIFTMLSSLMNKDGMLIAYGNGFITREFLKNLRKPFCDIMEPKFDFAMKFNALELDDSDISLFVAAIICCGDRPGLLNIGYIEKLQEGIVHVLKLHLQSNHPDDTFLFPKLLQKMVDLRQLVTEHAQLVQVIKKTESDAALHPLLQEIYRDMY

[6] = biological target: T5, Peroxisome proliferator-activated receptor alpha (Mus musculus) (UniProt P23204); assay: Agonist activity at Gal4-fused mouse PPAR-alpha ligand binding domain expressed in CHO-K1 cells assessed as receptor transactivation incubated for 24 to 48 hrs by luciferase reporter gene assay relative to control; assay type: cell-based; settings: time lower 24.0 hrs, time upper […]
T5 sequence (whole entry): T4 sequence (P23204 whole entry)

[7] = biological target: T6, Peroxisome proliferator-activated receptor delta (Homo sapiens) (UniProt Q03181); assay: Agonist activity at Gal4-fused human PPAR-delta ligand binding domain expressed in CHO-K1 cells assessed as receptor transactivation incubated for 24 to 48 hrs by luciferase reporter gene assay relative to control; assay type: cell-based; settings: time lower 24.0 hrs, time upper […]
T6 sequence (whole entry): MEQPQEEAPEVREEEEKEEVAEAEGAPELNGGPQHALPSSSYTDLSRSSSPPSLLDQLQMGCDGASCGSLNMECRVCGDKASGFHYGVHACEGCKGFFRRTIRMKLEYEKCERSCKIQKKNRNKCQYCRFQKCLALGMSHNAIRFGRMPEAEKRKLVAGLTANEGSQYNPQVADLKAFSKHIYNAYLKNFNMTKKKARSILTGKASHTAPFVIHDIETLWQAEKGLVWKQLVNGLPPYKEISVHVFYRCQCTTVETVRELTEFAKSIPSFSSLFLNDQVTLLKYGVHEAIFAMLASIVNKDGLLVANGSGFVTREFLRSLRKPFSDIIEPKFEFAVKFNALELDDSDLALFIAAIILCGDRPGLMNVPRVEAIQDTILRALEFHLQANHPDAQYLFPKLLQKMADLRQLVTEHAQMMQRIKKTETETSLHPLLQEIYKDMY

[8] = biological target: T7, Peroxisome proliferator-activated receptor delta (Mus musculus) (UniProt P35396); assay: Agonist activity at Gal4-fused mouse PPAR-delta ligand binding domain expressed in CHO-K1 cells assessed as receptor transactivation incubated for 24 to 48 hrs by luciferase reporter gene assay relative to control; assay type: cell-based; settings: time lower 24.0 hrs, time upper […]
T7 sequence (whole entry): T1 sequence (P35396 whole entry)

[9] = biological target: T8, Peroxisome proliferator-activated receptor delta (Homo sapiens, UniProt Q03181); assay: Agonist activity at Gal4-fused human PPAR-delta ligand binding domain expressed in CHO-K1 cells assessed as receptor transactivation incubated for 24 to 48 hrs by luciferase reporter gene assay; assay type: cell-based
T8 sequence (Q03181 whole entry): T6 sequence (whole entry)

[10] = biological target: T9, Peroxisome proliferator-activated receptor gamma (Mus musculus, UniProt P37238); assay: Agonist activity at Gal4-fused mouse PPAR-gamma ligand binding domain expressed in CHO-K1 cells assessed as receptor transactivation incubated for 24 to 48 hrs by luciferase reporter gene assay; assay type: cell-based
T9 sequence (P37238 whole entry): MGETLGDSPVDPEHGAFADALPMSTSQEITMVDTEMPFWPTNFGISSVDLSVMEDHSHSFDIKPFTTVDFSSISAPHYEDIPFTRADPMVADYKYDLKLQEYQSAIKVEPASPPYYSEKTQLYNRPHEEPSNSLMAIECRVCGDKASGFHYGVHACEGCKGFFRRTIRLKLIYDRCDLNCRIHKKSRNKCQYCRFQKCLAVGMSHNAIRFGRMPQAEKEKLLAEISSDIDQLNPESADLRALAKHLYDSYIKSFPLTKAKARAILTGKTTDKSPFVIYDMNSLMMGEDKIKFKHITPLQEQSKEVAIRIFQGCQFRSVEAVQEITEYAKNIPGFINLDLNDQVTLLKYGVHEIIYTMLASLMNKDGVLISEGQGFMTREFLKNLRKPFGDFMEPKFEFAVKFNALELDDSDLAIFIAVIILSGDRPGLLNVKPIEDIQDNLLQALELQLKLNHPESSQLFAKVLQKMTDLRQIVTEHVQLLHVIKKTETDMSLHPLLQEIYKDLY

Mus musculus [11] = species: Mus musculus; assay: Selectivity ratio of EC50 for agonist activity at Gal4-fused mouse PPAR-gamma ligand binding domain expressed in CHO-K1 cells to EC50 for agonist activity at Gal4-fused mouse PPAR-delta ligand binding domain expressed in CHO-K1 cells; assay type: cell-based
[12] = AUC in rat at 0.5 mg/kg, iv; assay type: ADME, organism-based; set-up: dose 0.5 mg/kg, route iv; settings: in vivo
Mus musculus [13] = assay: Antihypercholesterolemic activity against hApoB100/hCETP-dTg hypercholesterolemic mouse model assessed as serum HDL-C level at 3 mg/kg, po administered once daily for 8 days; assay type: functional; settings: time 8 day
[14] = AUC in rat at 1 mg/kg, po; assay type: ADME, organism-based; set-up: dose 1 mg/kg, route po; settings: in vivo
[15] = Cmax in rat at 1 mg/kg, po; assay type: ADME, organism-based; set-up: dose 1 mg/kg, route po; settings: in vivo
[16] = Clearance in rat at 0.5 mg/kg, iv; assay type: ADME, organism-based; settings: in vivo
[17] = Half life in rat at 0.5 mg/kg, iv; assay type: ADME, organism-based; settings: in vivo
[18] = Oral bioavailability in rat at 1 mg/kg; assay type: ADME, organism-based; settings: in vivo
Mus musculus [19] = assay: Antihypercholesterolemic activity against hApoB100/hCETP-dTg hypercholesterolemic mouse model assessed as serum total cholesterol level at 3 mg/kg, po administered once daily for 8 days; assay type: functional; settings: time 8 day
Mus musculus [20] = assay: Antihypercholesterolemic activity against hApoB100/hCETP-dTg hypercholesterolemic mouse model assessed as serum non-HDL-C level at 3 mg/kg, po administered once daily for 8 days; assay type: functional; settings: time 8 day

SMILES | EC50 [1] [nM] | EC50 [2] [nM] | Emax [3] [%] | Ratio EC50 (Mus musculus [4]) | EC50 [5] [nM] | Emax [6] [%] | Emax [7] [%] | Emax [8] [%] | EC50 [9] [nM] | EC50 [10] [nM] | Ratio EC50 (Mus musculus [11]) | AUC [12] [ng·h/mL] | Activity (Mus musculus [13]) [%] | AUC [14] [ng·h/mL] | Cmax [15] [ng/mL] | clearance [16] [mL/min/kg] | half-life [17] [h] | bioavailability [18] [%] | Activity (Mus musculus [19]) [%] | Activity (Mus musculus [20]) [%]
Cc1cc(CC(=O)O)cc(CN2CCN(c3nc4ccc(C(F)(F)F)cc4s3)[C@@H](CC(C)C)C2)c1 | 79 | 1500 | 1.4 | 73 | 5800 | 4.5 | 13.6 | 17.9 | 19 |  |  |  |  |  |  |  |  |  |  | 
CC(C)C[C@H]1CN(c2nc3ccc(Cl)cc3s2)CCC1CCOc1cc(CC(=O)O)ccc1Cl (stereo partly specified) | 61 | 1100 | 3.1 |  |  | 4.6 | 23.2 | 28.3 | 17 | 660 | 11 |  |  |  |  |  |  |  |  | 
CC[C@H]1CN(c2nc3ccc(C(F)(F)F)cc3s2)CCN1CCOc1cc(CC(=O)O)ccc1Cl | 6.1 |  |  |  | 2500 | 8 |  | 31.7 |  | 240 |  | 399 | 156 | 151 | 10 | 21.5 | 2.7 | 18.9 | 94 | 82
Cc1cc(CC(=O)O)cc(CN2CCN(c3nc4ccc(C(F)(F)F)cc4s3)[C@@H](C(C)C)C2)c1 | 12 |  |  |  | 2000 | 10.3 | 18.6 | 25 | 4.1 |  |  | 26700 | 188 | 45900 | 2050 | 0.31 | 9.5 | 85.8 | 72 | 56
C[C@H]1CN(c2nc3ccc(C(F)(F)F)cc3s2)CCN1CCOc1cc(CC(=O)O)ccc1Cl | 6.9 |  |  |  | 2700 | 7.2 |  | 34 |  | 240 |  | 190 | 113 | 101 | 11 | 45.6 | 1.4 | 26.4 | 76 | 80
Cc1cc(CC(=O)O)cc(CN2CCN(c3nc4ccc(C(F)(F)F)cc4s3)[C@H](CC(C)C)C2)c1 | 6.9 |  | 1.6 |  |  | 1.4 | 17.5 | 24.8 | 4.3 |  |  | 5680 | 145 | 7140 | 895 | 1.47 | 6.7 | 62.9 | 83 | 75
